Legend:
[1] = system: A549 cells; test: MTT cytotoxicity, A549; type: cell-based; details: 24 hours, RA (210 mM), HBA (220 mM)
Experimental: Next, to evaluate the cytotoxicity of tRABA, a 3-(4,5-dimethylthiazol-2-yl)-2,5-diphenyltetrazolium bromide (MTT)) analysis was performed. The cell survival rate was measured 24 hours after A549 cells were treated with RA, HBA, and tRABA, and the results are shown in FIG. 8C.

[2] = Self-assembly of nanoparticles in water, particle size and SEM; type: physicochemical
Experimental: RABA dissolved in tetrahydrofuran (THF) was added to water while stirring. During dilution in water, strong light scattering occurred due to the Tyndall phenomenon. […] The mean hydrodynamic diameter was measured to be ˜120 nm.
It was confirmed that the nanoparticles existed in a spherical colloidal state. In addition, an experiment was performed to confirm self-assembly of Compound 2, which is produced during the preparation process of RA and RABA.

[3] = system: SW620 multicellular spheroids; test: Tumor penetration in multicellular spheroids; type: cell-based; details: 6 hours
Description: Next, SW620 multicellular spheroids were used to evaluate the tumor penetration of Nile Red-loaded tRABA nanoparticles. […] This means that tRABA penetrated much deeper into the spheroids than RABA. From this, it could be confirmed that tRABA has excellent tumor penetration.

[4] = Reactivity of RABA in the presence of H2O2 (1H NMR after incubation); type: physicochemical
Experimental: To evaluate the reactivity of the prepared RABA in the presence of H2O2, ^1H NMR of the RABA was taken after incubation in a 5 mM H2O2 solution.
The peaks at 7.3 and 7.8 ppm corresponding to aromatic protons disappeared, and new peaks at 6.8 and 7.1 ppm appeared. The peaks corresponding to benzylic proton were shifted from 5.1 ppm to 5.0 ppm. On the other hand, there was no peak shift in the RABA incubated in water without H2O2.

[5] = system: GSH in A549 cells; test: Intracellular GSH levels; type: cell-based; parameters: dose or concentration left out as unconfirmed
Experimental: Therefore, an experiment was conducted to measure intracellular GSH levels in A549 cells treated with tRABA.

[6] = system: calreticulin (CRT) in A549 cells; test: CRT level by flow cytometry; type: cell-based
Experimental: Next, since immunogenic apoptosis enhances immunogenicity and anticancer effects by releasing damage-associated molecular pattern (DAMP) substances during the cell dying process, an experiment was performed to confirm whether tRABA nanoparticles induce immunogenic cell death to improve immunogenicity. First, the expression levels of DAMPs such as calreticulin (CRT) and high mobility group box 1 (HMGB1) were confirmed as endoplasmic reticulum (ER) stress markers.

[7] = system: tumor model mice; test: Tumor growth inhibition in tumor model mice; type: in vivo, mouse; details: i.v. on Days 1, 4, 7, 10, 13; RA 3 mg/kg, HBA 1.5 mg/kg, tRABA 5 mg/kg
Experimental: Next, the anticancer effect was evaluated by administering a therapeutic drug in the tumor model mice when the tumor size reached 50 mm^3. A therapeutic drug was intravenously administered on Days 1, 4, 7, 10, and 13 to the tumor model mice.

[8] = system: HMGB1 released from A549 cells; test: HMGB-1 release; type: cell-based
Experimental: Next, since it is known that HMGB-1 is a nuclear protein that binds to DNA and is triggered by an apoptosis inducer and that in the late stage of apoptosis, cells are destroyed and HMGB-1 is released into the tumor microenvironment to induce dendritic cell maturation and antigen presentation, an experiment was performed to confirm the effect of tRABA nanoparticles on HMGB-1 release.

## CC1=C(/C=C/C(C)=C/C=C/C(C)=C/C(=O)O)C(C)(C)CCC1 [RA, Retinoic acid]
[1]
  cell survival rate / cytotoxicity (MTT): the cell survival rate decreased

## CC1=C(/C=C/C(C)=C/C=C/C(C)=C/C(=O)OCc2ccc(B(O)O)cc2)C(C)(C)CCC1 [RABA]
[2]; THF solution added to water, SEM
  self-assembly into nanoparticles: the nanoparticles were being formed well
[2]; nanoparticles in water
  mean hydrodynamic diameter: ~120 nm
[3]
  spheroid penetration (fluorescence): weak fluorescence
[4]; incubated in water without H2O2
  stability in water (1H NMR peak shift): no peak shift
[4]; incubation in a 5 mM H2O2 solution
  reactivity in the presence of H2O2 (1H NMR peak shift): a shift of the peak due to the release of HBA was observed

## hydroxybenzyl alcohol [HBA]
[5]
  intracellular GSH levels: no effect on the GSH levels
[6]
  level of CRT: almost no effect
[7]
  tumor growth inhibition: negligible inhibitory effect on tumor growth
[8]
  level of HMGB-1: did not affect the level of HMGB-1
